Assay results: US20120322726A1, “THERAPEUTIC AGENT FOR EATING DISORDERS” (MORINAGA MILK INDUSTRY CO., LTD., priority 2010, published 2012)

Experiments:
[1] = test system: KK-Ay mice; assay: Test Example 3: amount of livestock feed taken by hyperphagia model mice; format: in vivo
Experimental: The object of this test was to confirm that the casein hydrolysate according to the present invention has a therapeutic effect against the hyperphagia.
The product according to the present invention: The casein hydrolysate according to the present invention, prepared by the method described in EXAMPLE 1, was diluted with the distilled water so that the concentration of the hydrolysate would be 5 mg/ml.
The precipitate fraction: Sample 2 in the Test Example 1 was diluted with the distilled water into 5 mg/ml.
Whole casein hydrolysate: The rennet casein (Fonterra Co-operative Group Limited, protein content 80%) used in EXAMPLE 1 was digested with pepsin in the same way as in EXAMPLE 1, and then, without centrifuging, diluted with the distilled water for injection so that the concentration of the hydrolysate would be 5 mg/ml.
GMP (glycol-macropeptide): A commercially available GMP (MG Nutritionals) was diluted with the distilled water for injection so that the concentration of GMP would be 5 mg/ml. […]
After pre-feeding with said livestock feed for 10 days, test animals were divided into 8 groups each including 8 animals so that they would have the nearly equal body weight and take the nearly equal amount of livestock feed. […] The amount of livestock feed taken by the animal was determined once a week. […]

[2] = test system: KK-Ay mice; assay: Test Example 4: blood glucose level of hyperphagia model mice; format: in vivo
From the text: The object of this test was to confirm that the casein hydrolysate according to the present invention has an effect of decreasing the blood glucose level of the patient with hyperphagia.
The same one as in EXAMPLE 3 was used.
A commercially available livestock feed containing no protein from milk (Nihon Nosan, trade name: MR Stock) was used. As drinking water, tap water (city water) was used.
As animal model for hyperphagia, KK-Ay mice (male, 5 weeks old, CLEA Japan, Inc.) were used.
After pre-feeding with said livestock feed for 10 days, test animals were divided into 8 groups each including 8 animals so that they would have the nearly equal body weight and take the nearly equal amount of livestock feed. The animals of each group could take the livestock feed and water freely. During 5 days of one week, 0.5 ml of the sample was administered to each animal per day using a sonde. The test was performed for 5 weeks. The blood glucose level was determined once a week, using a glucose kit for self checking (Johnson & Johnson).
Relative blood glucose level is an average blood glucose level of each group when the average blood glucose level of the control group is considered 1.

[3] = 5 mg/ml, 0.5 ml per day, 5 weeks after starting of administration

## κ-casein: commercially available κ-casein (Sigma)
[1]; [3]
  change of amount of livestock feed taken compared to the control: wasn't a significant effect
[1]; 0.5 ml of 5 mg/ml sample per day by sonde, 5 days of one week, 5 weeks, control group = 1, * p < 0.05
  Relative amount of livestock feed ingested 5 weeks later: 0.990
[2]; [3]
  change of blood glucose level compared to the control: wasn't a significant effect
[2]; Table 3 (text: relative blood glucose level), 0.5 ml of 5 mg/ml sample per day, 5 days of one week, 5 weeks, control group = 1, * p < 0.05
  Relative blood glucose level 5 weeks later: 0.934
